Data on 25 molecules can be found in patent publication US20230135894A1, “MK2 DEGRADERS AND USES THEREOF” (Kymera Therapeutics, Inc., priority 2021, published 2023).

Experiment [1] has as its target T1, MK2 (Homo sapiens, UniProt P49137). Put plainly: MK2 degradation in human SW1353 cells (MSD, 24 h). Also on record: endogenous in cells; host or cells: SW-1353 (ATCC HTB-94); key to MK2 MSD SW 1353 24 h Dmax %: —: “-”=not tested or inactive. It is filed as cell-based. The note with it: for DC50: read-out: MK2 MSD SW1353 degradation 24 h GMean External Abs DC50; for Dmax: read-out: MK2 MSD SW 1353 24 h Dmax %. In outline:
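DC50 derived by 4-parameter logistic fit, with DMSO-treated signal as top and lysis-buffer signal as bottom. Remaining MK2 was measured by MSD electrochemiluminescent sandwich assay in RIPA lysates of human SW1353 cells exposed for 24 h at 37 °C to serially diluted compound in 0.1% DMSO.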

The target of experiment [2] is T1, MK2. Nature of the experiment: MK2 degradation in human THP-1 monocytic cells (MSD, 24 h). Format: cell-based. Also on record: endogenous in cells. The settings on record: for Dmax: THP-1, THP-1 cells; for DC50: THP-1 cells, read-out: MK2 MSD THP-1 degradation 24 h GMean External Abs DC50. The gist of the method: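 Readout: residual MK2 protein in THP-1 lysates, measured by MSD electrochemiluminescence sandwich assay after 24 h compound exposure (≤10-point serial dilutions, 0.1% DMSO, 37 °C). Curves normalised between lysis-buffer and DMSO-cell signals; DC50 by 4-parameter logistic fit.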

Bounds are passed on as bounds.

By DC50 is commonly meant the concentration at which degradation of the target reaches its halfway point. As a reminder, the Dmax is the greatest extent of degradation seen.

T1 sequence (P49137 whole entry): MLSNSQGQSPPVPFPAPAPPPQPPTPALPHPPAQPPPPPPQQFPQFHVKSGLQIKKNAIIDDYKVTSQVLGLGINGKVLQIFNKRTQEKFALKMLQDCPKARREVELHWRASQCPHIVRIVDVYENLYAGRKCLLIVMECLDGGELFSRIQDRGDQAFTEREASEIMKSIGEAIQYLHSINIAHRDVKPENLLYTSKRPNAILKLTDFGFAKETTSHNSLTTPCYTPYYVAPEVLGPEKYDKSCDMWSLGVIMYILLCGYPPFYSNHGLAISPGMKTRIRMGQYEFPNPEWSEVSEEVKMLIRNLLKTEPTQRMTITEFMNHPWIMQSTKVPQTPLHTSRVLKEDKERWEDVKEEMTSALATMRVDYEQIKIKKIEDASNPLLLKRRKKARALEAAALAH

Regarding `C[C@@H]1CNc2c(sc3ccc4nc(N5C6CCC5CN(CC5CCN(c7cccc8c7n(C)c(=O)n8C7CCC(=O)NC7=O)CC5)C6)ccc4c23)C(=O)N1` (stereo partly shown) [Compound I-435], at MK2 [1], the “MK2 MSD SW 1353 24 h Dmax %” value is on record as “—” and the DC50 was more than 100 nM. On MK2 [2], the maximal degradation (Dmax) is less than 50% and the DC50 is more than 100 nM.
As to `C[C@@H]1CNc2c(sc3ccc4nc(N5CC6CCC(C5)N6CC5CCN(c6cccc7c6n(C)c(=O)n7C6CCC(=O)NC6=O)CC5)ccc4c23)C(=O)N1` (stereo partly shown) [Compound I-436], at MK2 [1], the “MK2 MSD SW 1353 24 h Dmax %” value is “—” and the 50% degradation concentration (DC50) was more than 100 nM. Also, on MK2 [2], the Dmax is less than 50% and the 50% degradation concentration (DC50) is more than 100 nM.
As to `C[C@@H]1CNc2c(sc3ccc4nc(-c5ccc(N6CCN(CCCCOc7ccc(N8CCC(=O)NC8=O)cc7)CC6)nc5)ccc4c23)C(=O)N1` [Compound I-437], at MK2 [1], the maximal degradation (Dmax) is more than 75% and the DC50 lay within 1 to 10 nM. Moreover, at MK2 [2], the Dmax is more than 75% and the DC50 lay within 1 to 10 nM.
On to `C[C@@H]1CNc2c(sc3ccc4nc(-c5ccc(N6CCN(CC7CCN(c8ccc(N9CCC(=O)NC9=O)cc8)CC7)CC6)nc5)ccc4c23)C(=O)N1` [Compound I-438], for which, at MK2 [1], the Dmax was more than 75% and the DC50 lay within 1 to 10 nM. Moreover, at MK2 [2], the Dmax is more than 75% and the half-maximal degradation concentration (DC50) is 1 to 10 nM.
As to `C[C@@H]1CNc2c(sc3ccc4nc(N5CCC(CN6CC7(C6)CN(c6ccc8c(c6)n(C)c(=O)n8C6CCC(=O)NC6=O)C7)CC5)ccc4c23)C(=O)N1` (stereo partly shown) [Compound I-439], on MK2 [1], the Dmax is more than 75% and the DC50 is less than 1 nM. Moreover, on MK2 [2], the Dmax is more than 75% and the DC50 lay in the range of 1 to 10 nM.
In the case of `C[C@@H]1CNc2c(sc3ccc4nc(N5CCC(N6CC7(CCN(c8ccc9c(c8)n(C)c(=O)n9C8CCC(=O)NC8=O)CC7)C6)CC5)ccc4c23)C(=O)N1` (stereo partly shown) [Compound I-440], the Dmax at MK2 [1] and on MK2 [2] was more than 75% throughout. Also, the DC50 on MK2 [1] and on MK2 [2] was less than 1 nM throughout.
In the case of `C[C@@H]1CNc2c(sc3ccc4nc(N5CCC6(CC5)CN(C5CCN(c7cccc8c7n(C)c(=O)n8C7CCC(=O)NC7=O)CC5)C6)ccc4c23)C(=O)N1` (stereo partly shown) [Compound I-441], the Dmax at MK2 [1] and at MK2 [2] was more than 75% throughout. For the same molecule, the DC50 on MK2 [1] was less than 1 nM; at MK2 [2], 1 to 10 nM.
Consider `C[C@@H]1CNc2c(sc3ccc4nc(N5CCCN(CC6CCN(c7cccc8c7n(C)c(=O)n8C7CCC(=O)NC7=O)CC6)CC5)ccc4c23)C(=O)N1` (stereo partly shown) [Compound I-442], for which, on MK2 [1], the Dmax is less than 50% and the DC50 is more than 100 nM. In addition, on MK2 [2], the Dmax is less than 50% and the DC50 was more than 100 nM.
`C[C@@H]1CNc2c(sc3ccc4nc(N5CCN(C6CC7(CCN(c8cccc9c8n(C)c(=O)n9C8CCC(=O)NC8=O)CC7)C6)CC5)ccc4c23)C(=O)N1` (stereo partly shown) [Compound I-443]: on MK2 [1], the greatest degradation seen (Dmax) was more than 75% and the DC50 was less than 1 nM. Also, at MK2 [2], the Dmax was more than 75% and the DC50 was less than 1 nM.
For the molecule `C[C@@H]1CNc2c(sc3ccc4nc(N5CCCN(CCC6CCN(c7ccc8c(c7)n(C)c(=O)n8C7CCC(=O)NC7=O)CC6)CC5)ccc4c23)C(=O)N1` (stereo partly shown) [Compound I-444], the Dmax is more than 75% at MK2 [1] and 50 to 75% on MK2 [2]. Also, the DC50 on MK2 [1] and on MK2 [2] was 1 to 10 nM in each case.
`C[C@@H]1CNc2c(sc3ccc4nc(N5CCN(CCC6CCN(c7ccc8c(c7)n(C)c(=O)n8C7CCC(=O)NC7=O)CC6)CC5)ccc4c23)C(=O)N1` (stereo partly shown) [Compound I-445]: the Dmax on MK2 [1] and at MK2 [2] was more than 75% each time. The half-maximal degradation concentration (DC50) at MK2 [1] and at MK2 [2] was less than 1 nM each time.
As to `C[C@@H]1CNc2c(sc3ccc4nc(N5CCCN(CC6CCN(c7ccc8c(c7)n(C)c(=O)n8C7CCC(=O)NC7=O)CC6)CC5)ccc4c23)C(=O)N1` (stereo partly shown) [Compound I-446], on MK2 [1], the Dmax is less than 50% and the DC50 was more than 100 nM. For the same molecule, at MK2 [2], the Dmax was less than 50% and the DC50 is more than 100 nM.
With `CCc1cc(-c2cc(-c3cc4c([nH]3)CCNC4=O)ccn2)cc(CC)c1N1CCN(CC2CCN(c3ccc4c(c3)n(C)c(=O)n4C3CCC(=O)NC3=O)CC2)CC1` (stereo not shown) [Compound I-447], on MK2 [1], the Dmax is 50 to 75% and the DC50 lay in the range of 10 to 100 nM. For the same molecule, on MK2 [2], the Dmax is less than 50% and the DC50 is more than 100 nM.
The corresponding values for `CCc1cc(-c2cc(-c3cc4c([nH]3)C3(CC3)CNC4=O)ccn2)cc(CC)c1N1CCN(CC2CCN(c3ccc4c(c3)n(C)c(=O)n4C3CCC(=O)NC3=O)CC2)CC1` (stereo not shown) [Compound I-448] are 50 to 75%, 1 to 10 nM, less than 50% and more than 100 nM.
The corresponding values for `CN1CCc2[nH]c(-c3ccnc(-c4ccc(N5CCN(CC6CCN(c7ccc8c(c7)n(C)c(=O)n8C7CCC(=O)NC7=O)CC6)CC5)cc4)c3)cc2C1=O` (stereo not shown) [Compound I-450] are less than 50%, more than 100 nM, less than 50% and more than 100 nM.
The corresponding values for `C[C@@H]1CNc2c(sc3ccc4nc(N5CCN(C6CC7(CCN(c8ccc9c(c8)n(C)c(=O)n9C8CCC(=O)NC8=O)CC7)C6)CC5)ccc4c23)C(=O)N1` (stereo partly shown) [Compound I-451] are more than 75%, less than 1 nM, more than 75% and less than 1 nM.
Take `C[C@@H]1CNc2c(sc3ccc4nc(N5C[C@H]6CC[C@@H]5CN6CC5CCN(c6cccc7c6n(C)c(=O)n7C6CCC(=O)NC6=O)CC5)ccc4c23)C(=O)N1` (stereo partly shown) [Compound I-452]: on MK2 [1], the maximal degradation (Dmax) lay in the range of 50 to 75% and the DC50 fell in the range of 1 to 10 nM. Moreover, at MK2 [2], the greatest degradation seen (Dmax) lay in the range of 50 to 75% and the DC50 fell in the range of 10 to 100 nM.
Take `Cn1c(=O)n(C2CCC(=O)NC2=O)c2ccc(N3CCC(CN4CCN(c5ccc6occc6c5-c5cc(Nc6ccnc(N)n6)cc6cn[nH]c56)CC4)CC3)cc21` (stereo not shown) [Compound I-453]: at MK2 [1], the Dmax was less than 50% and the DC50 was more than 100 nM. In addition, on MK2 [2], the Dmax was less than 50% and the DC50 was more than 100 nM.
For the molecule `Cn1c(=O)n(C2CCC(=O)NC2=O)c2ccc(N3CCC(CN4CCN(c5ccc6cc(-c7cc(Nc8ccnc(N)n8)cc8cn[nH]c78)oc6c5)CC4)CC3)cc21` (stereo not shown) [Compound I-454], at MK2 [1], the Dmax was less than 50% and the DC50 was more than 100 nM. Further, at MK2 [2], the Dmax is less than 50% and the DC50 was more than 100 nM.
Regarding `Cn1c(=O)n(C2CCC(=O)NC2=O)c2ccc(N3CCC(CN4CCN(c5cc(C#N)cc(-n6cc(-c7ccc8c(c7)CCNC8=O)c(N)n6)c5)CC4)CC3)cc21` (stereo not shown) [Compound I-458], on MK2 [1], the Dmax was less than 50% and the DC50 is more than 100 nM. Moreover, on MK2 [2], the Dmax is less than 50% and the DC50 is more than 100 nM.
Consider `COc1cc(N2CCN(CC3CCN(c4ccc5c(c4)n(C)c(=O)n5C4CCC(=O)NC4=O)CC3)CC2)cc(-n2cc(-c3ccc4c(c3)CCNC4=O)c(N)n2)c1` (stereo not shown) [Compound I-459], for which, at MK2 [1], the Dmax was less than 50% and the DC50 is more than 100 nM. In addition, on MK2 [2], the Dmax was less than 50% and the 50% degradation concentration (DC50) was more than 100 nM.
On to `COc1cccc(-c2cc(N3CCN(CC4CCN(c5ccc6c(c5)n(C)c(=O)n6C5CCC(=O)NC5=O)CC4)CC3)cc(-n3cc(-c4ccc5c(c4)CCNC5=O)c(N)n3)c2)c1` (stereo not shown) [Compound I-460], for which, at MK2 [1], the Dmax is less than 50% and the DC50 was more than 100 nM. Further, on MK2 [2], the Dmax was less than 50% and the DC50 is more than 100 nM.
For `Cn1c(=O)n(C2CCC(=O)NC2=O)c2ccc(N3CCC(CN4CCN(c5cc(-c6ccc7cc[nH]c7c6)cc(-n6cc(-c7ccc8c(c7)CCNC8=O)c(N)n6)c5)CC4)CC3)cc21` (stereo not shown) [Compound I-461], on MK2 [1], the Dmax was more than 75% and the half-maximal degradation concentration (DC50) lay within 1 to 10 nM. Also, at MK2 [2], the Dmax lay in the range of 50 to 75% and the half-maximal degradation concentration (DC50) lay within 10 to 100 nM.
The corresponding values for `Cc1ccc(NC(=O)c2cccc(C(F)(F)F)c2)cc1N1Cc2cnc(Nc3ccc(N4CCN(CCCCCC(=O)N[C@H](C(=O)N5C[C@H](O)C[C@H]5C(=O)N[C@@H](C)c5ccc(-c6scnc6C)cc5)C(C)(C)C)CC4)nc3)nc2N(C)C1=O` [Compound I-462] are more than 75%, 10 to 100 nM, more than 75% and 1 to 10 nM.
The corresponding values for `Cc1ccc(NC(=O)c2cccc(C(F)(F)F)c2)cc1N1Cc2cnc(Nc3ccc(N4CCN(CCCCC(=O)N[C@H](C(=O)N5C[C@H](O)C[C@H]5C(=O)N[C@@H](C)c5ccc(-c6scnc6C)cc5)C(C)(C)C)CC4)nc3)nc2N(C)C1=O` [Compound I-463] are more than 75%, 1 to 10 nM, more than 75% and 1 to 10 nM.
